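In this assay, cells in 96-well plates receive the compound at five concentrations for 48 hours. Endpoints are linearly interpolated between the surrounding concentrations. GI50 is the concentration that inhibits growth by half. TGI: total growth inhibition.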
What was measured:
Assay in all cases: NCI-60 cell line screen, 48 h
[1] = test system: 786-0 renal
[2] = test system: A498 renal
[3] = test system: A549 NSCLC
[4] = test system: ACHN renal
[5] = test system: BT-549 breast
[6] = test system: CAKI-1 renal
[7] = test system: CCRF-CEM leukemia
[8] = test system: COLO 205 colon
[9] = test system: DU-145 prostate
[10] = test system: EKVX NSCLC
[11] = test system: HCC-2998 colon
[12] = test system: HCT-116 colon
[13] = test system: HCT-15 colon
[14] = test system: HL-60(TB) leukemia
[15] = test system: HOP-62 NSCLC
[16] = test system: HOP-92 NSCLC
[17] = test system: HS 578T breast
[18] = test system: HT29 colon
[19] = test system: IGROV1 ovarian
[20] = test system: K-562 leukemia
[21] = test system: KM12 colon
[22] = test system: LOX IMVI melanoma
[23] = test system: M14 melanoma
[24] = test system: MALME-3M melanoma
[25] = test system: MCF7 breast
[26] = test system: MDA-MB-231 breast
[27] = test system: MDA-MB-435
[28] = test system: MOLT-4 leukemia
[29] = test system: NCI-H23 lung
[30] = test system: NCI-H460 lung
[31] = test system: NCI-H522 lung
[32] = test system: NCI/ADR-RES ovarian
[33] = test system: OVCAR-3 ovarian
[34] = test system: OVCAR-4 ovarian
[35] = test system: OVCAR-5 ovarian
[36] = test system: OVCAR-8 ovarian
[37] = test system: PC-3 prostate
[38] = test system: RPMI-8226 leukemia
[39] = test system: RXF 393 renal
[40] = test system: SF-268 CNS
[41] = test system: SF-295 CNS
[42] = test system: SF-539 CNS
[43] = test system: SK-MEL-2 melanoma
[44] = test system: SK-MEL-28 melanoma
[45] = test system: SK-MEL-5 melanoma
[46] = test system: SK-OV-3 ovarian
[47] = test system: SN12C renal
[48] = test system: SNB-19 CNS
[49] = test system: SNB-75 CNS
[50] = test system: SR leukemia
[51] = test system: SW-620 colon
[52] = test system: T-47D breast
[53] = test system: TK-10 renal
[54] = test system: U251 CNS
[55] = test system: UACC-257 melanoma
[56] = test system: UACC-62 melanoma
[57] = test system: UO-31 renal
[58] = test system: NCI-H226 lung

For O=C1CCC/C=C\C[C@H]2C=CC(=O)/C2=C/C[C@H](CCc2cccc(C(F)(F)F)c2)O1, the GI50 [1] was 1.99 µM, the TGI [1] was 3.68 µM and the GI50 [2] was 1.68 µM. For the same compound, the TGI [2] was 3.22 µM, the GI50 [3] was 2.31 µM and the TGI [3] was 5.56 µM. It also gave a GI50 [4] of 1.19 µM, a TGI [4] of 2.6 µM and a GI50 [5] of 2.57 µM. It also gave a TGI [5] of 7.99 µM, a GI50 [6] of 4.04 µM and a TGI [6] of 16 µM. It also gave a GI50 [7] of 0.397 µM, a TGI [7] of 11.4 µM and a GI50 [8] of 1.58 µM. For the same compound, the TGI [8] was 4.16 µM, the GI50 [9] was 1.66 µM and the TGI [9] was 4.58 µM. It also gave a GI50 [10] of 1.94 µM, a TGI [10] of 4.08 µM and a GI50 [11] of 2.01 µM. For the same compound, the TGI [11] was 3.54 µM, the GI50 [12] was 0.327 µM and the TGI [12] was 1.48 µM. For the same compound, the GI50 [13] was 1.23 µM, the TGI [13] was 4.07 µM and the GI50 [14] was 2.1 µM. The TGI [14] was 6.88 µM, the GI50 [15] was 2.84 µM and the TGI [15] was 6.83 µM. It also gave a GI50 [16] of 2.29 µM, a TGI [16] of 4.77 µM and a GI50 [17] of 4.78 µM. It also gave a TGI [17] of 56.7 µM, a GI50 [18] of 1.11 µM and a TGI [18] of 3.39 µM. It also gave a GI50 [19] of 3.06 µM, a TGI [19] of 9.53 µM and a GI50 [20] of 0.692 µM. The TGI [20] was 6.44 µM, the GI50 [21] was 1.64 µM and the TGI [21] was 3.35 µM. It also gave a GI50 [22] of 0.44 µM, a TGI [22] of 1.82 µM and a GI50 [23] of 1.76 µM. The TGI [23] was 5.32 µM, the GI50 [24] was 2.25 µM and the TGI [24] was 7.1 µM. For the same compound, the GI50 [25] was 0.287 µM, the TGI [25] was 2.58 µM and the GI50 [26] was 4.41 µM. For the same compound, the TGI [26] was 18.2 µM, the GI50 [27] was 0.462 µM and the TGI [27] was 2.7 µM. For the same compound, the GI50 [28] was 2.14 µM, the TGI [28] was 6.26 µM and the GI50 [29] was 2.16 µM. It also gave a TGI [29] of 5.89 µM, a GI50 [30] of 3.18 µM and a TGI [30] of 10.1 µM. It also gave a GI50 [31] of 1.23 µM, a TGI [31] of 3.77 µM and a GI50 [32] of 0.748 µM. For the same compound, the TGI [32] was 11.3 µM, the GI50 [33] was 1.46 µM and the TGI [33] was 3.23 µM. For the same compound, the GI50 [34] was 3.78 µM, the TGI [34] was 15.9 µM and the GI50 [35] was 4.05 µM. It also gave a TGI [35] of 11.3 µM, a GI50 [36] of 0.495 µM and a TGI [36] of 5.64 µM. For the same compound, the GI50 [37] was 1.79 µM, the TGI [37] was 4.74 µM and the GI50 [38] was 0.628 µM. The TGI [38] was 6.73 µM, the GI50 [39] was 1.66 µM and the TGI [39] was 3.08 µM. For the same compound, the GI50 [40] was 2.77 µM, the TGI [40] was 8.3 µM and the GI50 [41] was 2.15 µM. The TGI [41] was 4.83 µM, the GI50 [42] was 2.61 µM and the TGI [42] was 6.81 µM. It also gave a GI50 [43] of 2.06 µM, a TGI [43] of 4.94 µM and a GI50 [44] of 2.56 µM. It also gave a TGI [44] of 6.75 µM, a GI50 [45] of 1.69 µM and a TGI [45] of 3.09 µM. The GI50 [46] was 2.92 µM, the TGI [46] was 7.75 µM and the GI50 [47] was 3.66 µM. For the same compound, the TGI [47] was 12.9 µM, the GI50 [48] was 2.22 µM and the TGI [48] was 7.04 µM. The GI50 [49] was 2.02 µM, the TGI [49] was 5.21 µM and the GI50 [50] was 0.627 µM. The TGI [50] was 5.62 µM, the GI50 [51] was 2.87 µM and the TGI [51] was 9.06 µM. For the same compound, the GI50 [52] was 1.78 µM, the TGI [52] was 7.12 µM and the GI50 [53] was 2.66 µM. For the same compound, the TGI [53] was 5.19 µM, the GI50 [54] was 1.26 µM and the TGI [54] was 2.85 µM. It also gave a GI50 [55] of 2.11 µM, a TGI [55] of 5.18 µM and a GI50 [56] of 2.34 µM. For the same compound, the TGI [56] was 7.52 µM, the GI50 [57] was 1.57 µM and the TGI [57] was 3 µM.
N#Cc1cnc(=O)n(C2CC(O)C(CO)O2)c1 (stereo not drawn) showed a GI50 [1] greater than 100 µM, a TGI [1] greater than 100 µM and a GI50 [2] of 17.5 µM. For the same compound, the TGI [2] was 82 µM, the GI50 [3] was greater than 100 µM and the TGI [3] was greater than 100 µM. It also gave a GI50 [4] greater than 100 µM, a TGI [4] greater than 100 µM and a GI50 [5] greater than 100 µM. For the same compound, the TGI [5] was greater than 100 µM, the GI50 [6] was greater than 100 µM and the TGI [6] was greater than 100 µM. For the same compound, the GI50 [7] was greater than 100 µM, the TGI [7] was greater than 100 µM and the GI50 [8] was greater than 100 µM. The TGI [8] was greater than 100 µM, the GI50 [9] was greater than 100 µM and the TGI [9] was greater than 100 µM. For the same compound, the GI50 [10] was greater than 100 µM, the TGI [10] was greater than 100 µM and the GI50 [11] was greater than 100 µM. The TGI [11] was greater than 100 µM, the GI50 [12] was greater than 100 µM and the TGI [12] was greater than 100 µM. It also gave a GI50 [13] greater than 100 µM, a TGI [13] greater than 100 µM and a GI50 [14] greater than 100 µM. For the same compound, the TGI [14] was greater than 100 µM, the GI50 [15] was greater than 100 µM and the TGI [15] was greater than 100 µM. The GI50 [16] was greater than 100 µM, the TGI [16] was greater than 100 µM and the GI50 [17] was greater than 100 µM. The TGI [17] was greater than 100 µM, the GI50 [18] was greater than 100 µM and the TGI [18] was greater than 100 µM. It also gave a GI50 [19] greater than 100 µM, a TGI [19] greater than 100 µM and a GI50 [20] of 93.1 µM. For the same compound, the TGI [20] was greater than 100 µM, the GI50 [21] was greater than 100 µM and the TGI [21] was greater than 100 µM. The GI50 [22] was greater than 100 µM, the TGI [22] was greater than 100 µM and the GI50 [23] was greater than 100 µM. For the same compound, the TGI [23] was greater than 100 µM, the GI50 [24] was greater than 100 µM and the TGI [24] was greater than 100 µM. The GI50 [25] was greater than 100 µM, the TGI [25] was greater than 100 µM and the GI50 [26] was greater than 100 µM. The TGI [26] was greater than 100 µM, the GI50 [27] was greater than 100 µM and the TGI [27] was greater than 100 µM. For the same compound, the GI50 [28] was greater than 100 µM, the TGI [28] was greater than 100 µM and the GI50 [58] was greater than 100 µM. It also gave a TGI [58] greater than 100 µM, a GI50 [29] greater than 100 µM and a TGI [29] greater than 100 µM. It also gave a GI50 [30] greater than 100 µM, a TGI [30] greater than 100 µM and a GI50 [31] greater than 100 µM. The TGI [31] was greater than 100 µM, the GI50 [32] was greater than 100 µM and the TGI [32] was greater than 100 µM. It also gave a GI50 [33] greater than 100 µM, a TGI [33] greater than 100 µM and a GI50 [34] greater than 100 µM. It also gave a TGI [34] greater than 100 µM, a GI50 [35] greater than 100 µM and a TGI [35] greater than 100 µM. It also gave a GI50 [36] greater than 100 µM, a TGI [36] greater than 100 µM and a GI50 [37] greater than 100 µM. It also gave a TGI [37] greater than 100 µM, a GI50 [38] greater than 100 µM and a TGI [38] greater than 100 µM. The GI50 [40] was greater than 100 µM, the TGI [40] was greater than 100 µM and the GI50 [41] was greater than 100 µM. For the same compound, the TGI [41] was greater than 100 µM, the GI50 [42] was greater than 100 µM and the TGI [42] was greater than 100 µM. It also gave a GI50 [43] greater than 100 µM, a TGI [43] greater than 100 µM and a GI50 [44] greater than 100 µM. It also gave a TGI [44] greater than 100 µM, a GI50 [45] greater than 100 µM and a TGI [45] greater than 100 µM. For the same compound, the GI50 [46] was greater than 100 µM, the TGI [46] was greater than 100 µM and the GI50 [47] was greater than 100 µM. It also gave a TGI [47] greater than 100 µM, a GI50 [48] greater than 100 µM and a TGI [48] greater than 100 µM. It also gave a GI50 [49] of 44.1 µM, a TGI [49] greater than 100 µM and a GI50 [50] greater than 100 µM. It also gave a TGI [50] greater than 100 µM, a GI50 [51] greater than 100 µM and a TGI [51] greater than 100 µM. It also gave a GI50 [52] greater than 100 µM, a TGI [52] greater than 100 µM and a GI50 [53] greater than 100 µM. The TGI [53] was greater than 100 µM, the GI50 [54] was greater than 100 µM and the TGI [54] was greater than 100 µM. For the same compound, the GI50 [55] was greater than 100 µM, the TGI [55] was greater than 100 µM and the GI50 [56] was greater than 100 µM. For the same compound, the TGI [56] was greater than 100 µM, the GI50 [57] was 51.6 µM and the TGI [57] was greater than 100 µM.
